Laboratory results taken from PubChem BioAssay AID1919010 (Molecular Pharmacology Branch, DTP, NCI, 2023).

Tested on: Hs578T complex spheroid growth, percent test/control
Experiment: Anticancer human tumor Hs578T cell line growth inhibition [AhR];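 further: luminescent viability signal as a proxy for spheroid growth; spheroids exposed to agents for one week after three days of growth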
Conditions: for IC50: curve of first compound; for viability, T/C: stronger effect = lower value
Outline: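 Complex tumor spheroids co-cultured with HUVEC and human MSC stroma; AhR antagonists tested in combination with standard-of-care and investigational agents. Top concentration at or near clinical Cmax (else 10 microM), half-log dilutions; growth expressed as percent test/control.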

[1] = second compound 0.1 µM, first compound 0.000949 µM
[2] = second compound 0.1 µM, first compound 0.003 µM
[3] = second compound 0.1 µM, first compound 0.00949 µM
[4] = second compound 0.1 µM, first compound 0.03 µM
[5] = second compound 0.1 µM, first compound 0.0949 µM
[6] = second compound 0.1 µM, first compound 0.3 µM
[7] = second compound 0.316 µM, first compound 0.000949 µM
[8] = second compound 0.316 µM, first compound 0.003 µM
[9] = second compound 0.316 µM, first compound 0.00949 µM
[10] = second compound 0.316 µM, first compound 0.03 µM
[11] = second compound 0.316 µM, first compound 0.0949 µM
[12] = second compound 0.316 µM, first compound 0.3 µM
[13] = second compound 1 µM, first compound 0.000949 µM
[14] = second compound 1 µM, first compound 0.003 µM
[15] = second compound 1 µM, first compound 0.00949 µM
[16] = second compound 1 µM, first compound 0.03 µM
[17] = second compound 1 µM, first compound 0.0949 µM
[18] = second compound 1 µM, first compound 0.3 µM
[19] = second compound 3.16 µM, first compound 0.000949 µM
[20] = second compound 3.16 µM, first compound 0.003 µM
[21] = second compound 3.16 µM, first compound 0.00949 µM
[22] = second compound 3.16 µM, first compound 0.03 µM
[23] = second compound 3.16 µM, first compound 0.0949 µM
[24] = second compound 3.16 µM, first compound 0.3 µM
[25] = second compound 10 µM, first compound 0.000949 µM
[26] = second compound 10 µM, first compound 0.003 µM
[27] = second compound 10 µM, first compound 0.00949 µM
[28] = second compound 10 µM, first compound 0.03 µM
[29] = second compound 10 µM, first compound 0.0949 µM
[30] = second compound 10 µM, first compound 0.3 µM

With `CC(C)CC(NC(=O)C(Cc1ccccc1)NC(=O)c1cnccn1)B(O)O` (stereo not given) + Cc1cncc(-c2nc(NCCc3c[nH]c4ccccc34)c3ncn(C(C)C)c3n2)c1 the IC50 (second compound 0.1 µM) was 7 nM, the IC50 (second compound 0.316 µM) was 6.66 nM and the IC50 (second compound 1 µM) was 5.92 nM. For the same compound, the IC50 (second compound 3.16 µM) was 3.77 nM, the IC50 (second compound 10 µM) was < 0.949 nM and the viability, T/C [1] was 101%. For the same compound, the viability, T/C [2] was 101%, the viability, T/C [3] was 31.8% and the viability, T/C [4] was 0.32%. The viability, T/C [5] was 0.25%, the viability, T/C [6] was 0.36% and the viability, T/C [7] was 112%. The viability, T/C [8] was 101%, the viability, T/C [9] was 27.3% and the viability, T/C [10] was 0.39%. It also gave a viability, T/C [11] of 0.31%, a viability, T/C [12] of 0.31% and a viability, T/C [13] of 97.8%. The viability, T/C [14] was 86.5%, the viability, T/C [15] was 24.8% and the viability, T/C [16] was 0.28%. The viability, T/C [17] was 0.19%, the viability, T/C [18] was 0.29% and the viability, T/C [19] was 69.4%. The viability, T/C [20] was 58%, the viability, T/C [21] was 17.3% and the viability, T/C [22] was 0.24%. It also gave a viability, T/C [23] of 0.24%, a viability, T/C [24] of 0.28% and a viability, T/C [25] of 5.56%. The viability, T/C [26] was 6.44%, the viability, T/C [27] was 1.16% and the viability, T/C [28] was 0.57%. The viability, T/C [29] was 0.26% and the viability, T/C [30] was 0.36%.
`CCc1c2c(nc3ccc(O)cc13)-c1cc3c(c(=O)n1C2)COC(=O)[C@]3(O)CC` + Cc1cncc(-c2nc(NCCc3c[nH]c4ccccc34)c3ncn(C(C)C)c3n2)c1 was tested, and the IC50 (second compound 0.1 µM) was 136 nM, the IC50 (second compound 0.316 µM) was 197 nM and the IC50 (second compound 1 µM) was 115 nM. The IC50 (second compound 3.16 µM) was < 0.949 nM, the IC50 (second compound 10 µM) was < 0.949 nM and the viability, T/C [1] was 74.8%. For the same compound, the viability, T/C [2] was 78.7%, the viability, T/C [3] was 74.4% and the viability, T/C [4] was 64.6%. The viability, T/C [5] was 53.9%, the viability, T/C [6] was 43.1% and the viability, T/C [7] was 83.5%. For the same compound, the viability, T/C [8] was 78.6%, the viability, T/C [9] was 80.2% and the viability, T/C [10] was 70.4%. For the same compound, the viability, T/C [11] was 61.2%, the viability, T/C [12] was 43.7% and the viability, T/C [13] was 77.7%. It also gave a viability, T/C [14] of 67.1%, a viability, T/C [15] of 68.2% and a viability, T/C [16] of 59.7%. For the same compound, the viability, T/C [17] was 52.1%, the viability, T/C [18] was 41.8% and the viability, T/C [19] was 38.9%. The viability, T/C [20] was 42.9%, the viability, T/C [21] was 38.7% and the viability, T/C [22] was 29%. For the same compound, the viability, T/C [23] was 18.2%, the viability, T/C [24] was 13.8% and the viability, T/C [25] was 4.74%. For the same compound, the viability, T/C [26] was 3.51%, the viability, T/C [27] was 4.95% and the viability, T/C [28] was 2.72%. For the same compound, the viability, T/C [29] was 1.85% and the viability, T/C [30] was 1%.
For `COc1cc(Nc2ncc3c(n2)-c2ccc(Cl)cc2C(c2c(F)cccc2OC)=NC3)ccc1C(=O)O` + Cc1cncc(-c2nc(NCCc3c[nH]c4ccccc34)c3ncn(C(C)C)c3n2)c1, the IC50 (second compound 0.1 µM) was > 10000 nM, the IC50 (second compound 0.316 µM) was > 10000 nM and the IC50 (second compound 1 µM) was > 10000 nM. For the same compound, the IC50 (second compound 3.16 µM) was > 10000 nM, the IC50 (second compound 10 µM) was < 31.6 nM and the viability, T/C (second compound 0.1 µM, first compound 0.0316 µM) was 91.4%. It also gave a viability, T/C (second compound 0.1 µM, first compound 0.1 µM) of 94.7%, a viability, T/C (second compound 0.1 µM, first compound 0.316 µM) of 99.6% and a viability, T/C (second compound 0.1 µM, first compound 1 µM) of 101%. The viability, T/C (second compound 0.1 µM, first compound 3.16 µM) was 85.6%, the viability, T/C (second compound 0.1 µM, first compound 10 µM) was 65.1% and the viability, T/C (second compound 0.316 µM, first compound 0.0316 µM) was 93.5%. It also gave a viability, T/C (second compound 0.316 µM, first compound 0.1 µM) of 93.2%, a viability, T/C (second compound 0.316 µM, first compound 0.316 µM) of 107% and a viability, T/C (second compound 0.316 µM, first compound 1 µM) of 90.5%. For the same compound, the viability, T/C (second compound 0.316 µM, first compound 3.16 µM) was 88.2%, the viability, T/C (second compound 0.316 µM, first compound 10 µM) was 66.9% and the viability, T/C (second compound 1 µM, first compound 0.0316 µM) was 98.5%. For the same compound, the viability, T/C (second compound 1 µM, first compound 0.1 µM) was 81.7%, the viability, T/C (second compound 1 µM, first compound 0.316 µM) was 104% and the viability, T/C (second compound 1 µM, first compound 1 µM) was 99.2%. It also gave a viability, T/C (second compound 1 µM, first compound 3.16 µM) of 86.7%, a viability, T/C (second compound 1 µM, first compound 10 µM) of 62.5% and a viability, T/C (second compound 3.16 µM, first compound 0.0316 µM) of 55.6%. For the same compound, the viability, T/C (second compound 3.16 µM, first compound 0.1 µM) was 62.4%, the viability, T/C (second compound 3.16 µM, first compound 0.316 µM) was 70.1% and the viability, T/C (second compound 3.16 µM, first compound 1 µM) was 59.4%. The viability, T/C (second compound 3.16 µM, first compound 3.16 µM) was 61.1%, the viability, T/C (second compound 3.16 µM, first compound 10 µM) was 53.3% and the viability, T/C (second compound 10 µM, first compound 0.0316 µM) was 6.12%. For the same compound, the viability, T/C (second compound 10 µM, first compound 0.1 µM) was 5.86%, the viability, T/C (second compound 10 µM, first compound 0.316 µM) was 6.53% and the viability, T/C (second compound 10 µM, first compound 1 µM) was 6.24%. The viability, T/C (second compound 10 µM, first compound 3.16 µM) was 8.49% and the viability, T/C (second compound 10 µM, first compound 10 µM) was 12.8%.
